Test results from ChEMBL document CHEMBL3585330, “Anticancer activity of koningic acid and semisynthetic derivatives” (Bioorg Med Chem, 2015).

Legend:
Assay type in all cases: functional, cell-based
[1] = Antiproliferative activity against human NAMALWA cells assessed as inhibition of cell proliferation incubated for 72 hrs by conventional ATP quantification method; details: NAMALVA
A-375 = test: Antiproliferative activity against human A375 cells assessed as inhibition of cell proliferation incubated for 72 hrs by conventional ATP quantification method; details: A-375, 72 h
A549 = test: Antiproliferative activity against human A549 cells assessed as inhibition of cell proliferation incubated for 72 hrs by conventional ATP quantification method; details: A549, 72 h
[2] = Antiproliferative activity against human WM266.4 cells assessed as inhibition of cell proliferation incubated for 72 hrs by conventional ATP quantification method; details: WM 266-4, 72 h
HCT-116 = test: Antiproliferative activity against human HCT116 cells assessed as inhibition of cell proliferation incubated for 72 hrs by conventional ATP quantification method; details: HCT-116, 72 h

| SMILES | IC50 (A-375) [nM] | IC50 (A549) [nM] | IC50 (HCT-116) [nM] | IC50 [1] [nM] | IC50 [2] [nM] |
| --- | --- | --- | --- | --- | --- |
| CC(C)[C@H]1CC[C@@](O)(CO)[C@H]2C(=O)OCC(C(=O)O)=C[C@H]12 | > 32000 | > 32000 | > 32000 | > 32000 | > 32000 |
| CC(C)[C@H]1CC[C@@]2(CO2)[C@H]2C(=O)OCC(C(=O)OCc3ccc(-c4ccccc4)o3)=C[C@H]12 | 1310 | 350 | 220 | 370 | 960 |
| CC(C)[C@H]1CC[C@@]2(CO2)[C@H]2C(=O)OCC(C(=O)OCc3ccc(-c4ccc([N+](=O)[O-])cc4)o3)=C[C@H]12 | 1640 | 450 | 620 | 1190 | 3600 |
| CNC(=O)C1=C[C@@H]2[C@@H](C(C)C)CC[C@@](O)(CO)[C@H]2C(=O)OC1 | > 32000 | > 32000 | > 32000 | > 32000 | > 32000 |

More lines, main results first:

| IC50 (A-375) [nM] | IC50 (A549) [nM] | IC50 (HCT-116) [nM] | SMILES | IC50 [1] [nM] | IC50 [2] [nM] |
| --- | --- | --- | --- | --- | --- |
| > 10000 | 5430 | 2140 | CC(C)[C@H]1CC[C@@](O)(CI)[C@H]2C(=O)OCC(C(=O)O)=C[C@H]12 | 3260 | 10100 |
| 4000 | 1720 | 610 | CC(C)[C@H]1CC[C@@](O)(CCl)[C@H]2C(=O)OCC(C(=O)OCc3ccc(-c4ccccc4)o3)=C[C@H]12 | 1110 | 2910 |
| > 10000 | > 10000 | > 10000 | C=C(C(=O)O)C1OC(=O)[C@H]2[C@H]1[C@@H](C(C)C)CC[C@@]2(O)CI (stereo not given in full) | > 10000 | > 10000 |
